Test results taken from the NIST ThermoML archive (doi:10.1021/je034048e).

Experiment: molar heat capacity at constant pressure
Details: 101.33 kPa

CCCCCCCC/C=C/CCCCCCCC(=O)OCC(COC(=O)CCCCCCC/C=C/CCCCCCCC)OC(=O)CCCCCCC/C=C/CCCCCCCC [trielaidin]
Crystal
Details | molar heat capacity at constant pressure [J/K/mol]
246.79 K | 1245.8
248.93 K | 1256.4
251.06 K | 1268.8
253.19 K | 1279.4
255.3 K | 1292.7
257.41 K | 1305.1
259.5 K | 1320.2
261.59 K | 1332.6
263.67 K | 1345.9
265.75 K | 1360.9
267.81 K | 1374.2
269.86 K | 1389.2
271.91 K | 1403.4
273.95 K | 1419.3
275.98 K | 1437.9
278 K | 1454.8
280.02 K | 1471.6
282.03 K | 1489.3
284.04 K | 1509.7
288.03 K | 1543.3
290.02 K | 1560.1
292 K | 1580.5
293.98 K | 1601.7
295.95 K | 1622.1
297.92 K | 1646.9
299.88 K | 1669.9
301.84 K | 1708.9
303.79 K | 1742.5
305.74 K | 1795.7
307.67 K | 1890.4
309.58 K | 2118.8

Small (less than 1 g) adiabatic calorimetry
Details | molar heat capacity at constant pressure [J/K/mol]
248.9 K, Metastable crystal | 1565.4
250 K, Crystal | 1266.2
250 K, Metastable crystal | 1576.1
251.38 K, Metastable crystal | 1586.7
253.84 K, Metastable crystal | 1607.9
256.3 K, Metastable crystal | 1629.2
258.74 K, Metastable crystal | 1653.1
260 K, Crystal | 1319.3
260 K, Metastable crystal | 1664.6
261.18 K, Metastable crystal | 1675.2
263.6 K, Metastable crystal | 1697.4
266.01 K, Metastable crystal | 1717.7
268.41 K, Metastable crystal | 1732.8
270 K, Crystal | 1390.1
270 K, Metastable crystal | 1744.3
270.81 K, Metastable crystal | 1742.5
273.2 K, Metastable crystal | 1738.1
280 K, Crystal | 1469.8
280 K, Metastable crystal | 1815.1
288 K, Crystal | 1549.5
288 K, Metastable crystal | 1886
290 K, Crystal | 1558.4
298.15 K, Crystal | 1646.9
300 K, Crystal | 1673.5
310 K, Crystal | 1762
314.83 K, Crystal | 1806.3
314.83 K, Liquid | 1877.1
317.71 K, Liquid | 1884.2
318.99 K, Liquid | 1886.9
320 K, Liquid | 1894.8
320.03 K, Liquid | 1891.3
321 K, Liquid | 1895.7
322.34 K, Liquid | 1893.9
323.01 K, Liquid | 1896.6
324.66 K, Liquid | 1901.9
325.03 K, Liquid | 1902.8
326.98 K, Liquid | 1907.2
327.05 K, Liquid | 1906.3
329.07 K, Liquid | 1911.6
329.29 K, Liquid | 1913.4
330 K, Liquid | 1912.5
331.09 K, Liquid | 1916.1
331.61 K, Liquid | 1918.7
333.11 K, Liquid | 1918.7
333.92 K, Liquid | 1922.3
335.13 K, Liquid | 1922.3
336.24 K, Liquid | 1926.7
337.15 K, Liquid | 1926.7
338.55 K, Liquid | 1932.9
339.17 K, Liquid | 1933.8
340.87 K, Liquid | 1940.9
343.19 K, Liquid | 1946.2
345.51 K, Liquid | 1950.6
347.83 K, Liquid | 1954.1
350.15 K, Liquid | 1963
